Experimental data from patent US20260285855A1, “HETEROARYL DERIVATIVES AS DDRS INHIBITORS” (CHIESI FARMACEUTICI S.P.A., priority 2023, published 2026).

Tests used:
[1] = target: T1, DDR1 (Homo sapiens, UniProt Q08345); assay: LanthaScreen Europium Kinase Binding assay, DDR1; conditions: 5 nM DDR1, 20 nM Kinase Tracer 178, 1 h at rt; Ki from IC50 by Cheng-Prusoff; read-out: Ki DDR1
T1 construct: purchased Carna Biosciences
Procedure: (§1) DDR1 and DDR2 binding assays were performed using Life Technologies LanthaScreen™ Europium Kinase Binding assay. […] IC50 values were determined in GraphPad Prism 7.0 software, using 4 parameter model: log (inhibitor) vs. response. IC50 values were converted in Ki using the Cheng-Prusoff equation (Ki-IC50/(1+ [Tracer]/Kd).

[2] = target: T2, DDR2 (Homo sapiens, UniProt Q16832); assay: LanthaScreen Europium Kinase Binding assay, DDR2; conditions: 5 nM DDR2, 10 nM Kinase Tracer 178, 1 h at rt; Ki from IC50 by Cheng-Prusoff; read-out: Ki DDR2
T2 construct: purchased Life Technologies
T2 sequence (Q16832 22-855): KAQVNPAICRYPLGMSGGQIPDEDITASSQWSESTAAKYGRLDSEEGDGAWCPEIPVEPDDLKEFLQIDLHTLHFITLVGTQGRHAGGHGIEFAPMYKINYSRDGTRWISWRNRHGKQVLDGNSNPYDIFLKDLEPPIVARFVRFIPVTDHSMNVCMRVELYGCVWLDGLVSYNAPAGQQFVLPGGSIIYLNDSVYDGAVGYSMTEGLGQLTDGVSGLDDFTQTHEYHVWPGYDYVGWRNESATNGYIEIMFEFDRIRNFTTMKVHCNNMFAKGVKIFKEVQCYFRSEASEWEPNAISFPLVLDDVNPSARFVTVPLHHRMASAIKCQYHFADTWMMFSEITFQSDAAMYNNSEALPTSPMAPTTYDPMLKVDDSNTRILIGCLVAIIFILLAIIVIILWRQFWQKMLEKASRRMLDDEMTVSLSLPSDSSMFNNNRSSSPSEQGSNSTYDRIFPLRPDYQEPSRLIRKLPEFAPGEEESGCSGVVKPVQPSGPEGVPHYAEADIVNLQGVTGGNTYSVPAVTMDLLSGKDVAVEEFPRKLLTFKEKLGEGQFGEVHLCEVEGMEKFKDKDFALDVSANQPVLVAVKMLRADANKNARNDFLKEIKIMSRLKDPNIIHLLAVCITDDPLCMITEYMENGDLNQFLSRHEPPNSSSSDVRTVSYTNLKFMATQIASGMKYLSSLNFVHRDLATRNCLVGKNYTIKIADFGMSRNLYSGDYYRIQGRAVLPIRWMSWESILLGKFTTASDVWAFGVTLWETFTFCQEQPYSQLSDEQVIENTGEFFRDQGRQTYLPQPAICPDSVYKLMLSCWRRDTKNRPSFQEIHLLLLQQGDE
Procedure: as §1

T1 sequence (Q08345 19-913): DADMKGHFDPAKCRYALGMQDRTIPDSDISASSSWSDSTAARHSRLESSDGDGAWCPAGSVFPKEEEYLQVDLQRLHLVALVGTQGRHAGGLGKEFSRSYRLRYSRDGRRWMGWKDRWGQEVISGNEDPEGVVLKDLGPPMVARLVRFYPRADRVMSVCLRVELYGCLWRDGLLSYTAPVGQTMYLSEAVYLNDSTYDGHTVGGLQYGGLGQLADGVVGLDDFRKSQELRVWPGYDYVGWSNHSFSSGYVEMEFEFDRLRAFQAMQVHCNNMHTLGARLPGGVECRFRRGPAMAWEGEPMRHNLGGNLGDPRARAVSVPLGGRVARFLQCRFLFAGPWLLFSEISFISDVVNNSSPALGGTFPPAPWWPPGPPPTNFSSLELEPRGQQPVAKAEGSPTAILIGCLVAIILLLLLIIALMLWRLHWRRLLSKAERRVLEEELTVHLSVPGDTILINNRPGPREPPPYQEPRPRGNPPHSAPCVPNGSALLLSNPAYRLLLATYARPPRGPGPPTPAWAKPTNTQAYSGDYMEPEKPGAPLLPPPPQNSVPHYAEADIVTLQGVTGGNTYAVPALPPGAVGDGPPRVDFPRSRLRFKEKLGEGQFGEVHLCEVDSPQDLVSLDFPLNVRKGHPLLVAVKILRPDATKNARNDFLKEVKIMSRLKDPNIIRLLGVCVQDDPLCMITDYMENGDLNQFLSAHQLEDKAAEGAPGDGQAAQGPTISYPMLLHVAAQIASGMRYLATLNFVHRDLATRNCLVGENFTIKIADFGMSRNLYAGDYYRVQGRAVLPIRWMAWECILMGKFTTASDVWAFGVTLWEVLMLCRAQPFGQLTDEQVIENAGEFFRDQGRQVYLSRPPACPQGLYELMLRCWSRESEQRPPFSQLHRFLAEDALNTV

Compound	Ki [1]	Ki [2]
CN(C(=O)Nc1cc(C(C)(C)C)on1)C1CC2(C1)CN(C(=O)c1cnn3ccn(C)c13)C2 [Example 222, 3-(5-(tert-butyl)isoxazol-3-yl)-1-methyl-1-(2-(1-methyl-1H-imidazo[1,2-b]pyrazole-7-carbonyl)-2-azaspiro[3.3]heptan-6-yl)urea]	5 to 25 nM	25 to 100 nM
COCCc1cn2ncc(C(=O)N3CC4(CC(N(C)C(=O)Nc5cncc(C(F)(F)F)c5)C4)C3)c2n1C [Example 225, 1-(2-(2-(2-methoxyethyl)-1-methyl-1H-imidazo[1,2-b]pyrazole-7-carbonyl)-2-azaspiro[3.3]heptan-6-yl)-1-methyl-3-(5-(trifluoromethyl)pyridin-3-yl)urea]	< 5 nM	25 to 100 nM
COCCn1cc(-c2ccc3c(C(=O)N4CC5(CC(N(C)C(=O)Nc6cncc(C(F)(F)F)c6)C5)C4)cnn3c2)cn1 [Example 227, 1-(2-(6-(1-(2-methoxyethyl)-1H-pyrazol-4-yl)pyrazolo[1,5-a]pyridine-3-carbonyl)-2-azaspiro[3.3]heptan-6-yl)-1-methyl-3-(5-(trifluoromethyl)pyridin-3-yl)urea]	< 5 nM	5 to 25 nM
CN(C(=O)Nc1cncc(C(F)(F)F)c1)C1CC2(C1)CN(C(=O)c1cnn3cc(-c4cccnc4)ccc13)C2 [Example 230, 1-methyl-1-(2-(6-(pyridin-3-yl)pyrazolo[1,5-a]pyridine-3-carbonyl)-2-azaspiro[3.3]heptan-6-yl)-3-(5-(trifluoromethyl)pyridin-3-yl)urea]	< 5 nM	5 to 25 nM
CN(C(=O)Nc1cncc(C(F)(F)F)c1)C1CC2(C1)CN(C(=O)c1cnn3cc(-c4cnn(C)c4)ccc13)C2 [Example 231, 1-methyl-1-(2-(6-(1-methyl-1H-pyrazol-4-yl)pyrazolo[1,5-a]pyridine-3-carbonyl)-2-azaspiro[3.3]heptan-6-yl)-3-(5-(trifluoromethyl)pyridin-3-yl)urea]	< 5 nM	5 to 25 nM
CN(C(=O)Nc1cc(C(C)(C)C(F)(F)F)on1)C1CC2(C1)CN(C(=O)c1cnn3ccsc13)C2 [Example 235, 1-methyl-1-(2-(pyrazolo[5,1-b]thiazole-7-carbonyl)-2-azaspiro[3.3]heptan-6-yl)-3-(5-(1,1,1-trifluoro-2-methylpropan-2-yl)isoxazol-3-yl)urea]	< 5 nM	5 to 25 nM
CN(C(=O)Nc1cc(C(F)(F)F)ccn1)C1CC2(C1)CN(C(=O)c1cnn3ccccc13)C2 [Example 238, 1-methyl-1-(2-(pyrazolo[1,5-a]pyridine-3-carbonyl)-2-azaspiro[3.3]heptan-6-yl)-3-(4-(trifluoromethyl)pyridin-2-yl)urea]	< 5 nM	5 to 25 nM
CN(C(=O)Nc1cc(OC(F)(F)F)ccn1)C1CC2(C1)CN(C(=O)c1cnn3ccccc13)C2 [Example 239, 1-methyl-1-(2-(pyrazolo[1,5-a]pyridine-3-carbonyl)-2-azaspiro[3.3]heptan-6-yl)-3-(4-(trifluoromethoxy)pyridin-2-yl)urea]	< 5 nM	5 to 25 nM
CN(C(=O)Nc1cncc(C(F)(F)F)c1)C1CC2(C1)CN(C(=O)c1cnn3cc(N4CCCC4)ccc13)C2 [Example 240, 1-methyl-1-(2-(6-(pyrrolidin-1-yl)pyrazolo[1,5-a]pyridine-3-carbonyl)-2-azaspiro[3.3]heptan-6-yl)-3-(5-(trifluoromethyl)pyridin-3-yl)urea]	5 to 25 nM	5 to 25 nM
CN(C(=O)Nc1cc(C(F)(F)F)ccn1)C1CC2(C1)CN(C(=O)c1cnn3cc(-c4cnn(C)c4)ccc13)C2 [Example 241, 1-methyl-1-(2-(6-(1-methyl-1H-pyrazol-4-yl)pyrazolo[1,5-a]pyridine-3-carbonyl)-2-azaspiro[3.3]heptan-6-yl)-3-(4-(trifluoromethyl)pyridin-2-yl)urea]	< 5 nM	5 to 25 nM
CN(C(=O)Nc1cc(OC(F)(F)F)ccn1)C1CC2(C1)CN(C(=O)c1cnn3cc(-c4cnn(C)c4)ccc13)C2 [Example 242, 1-(2-(6-(1,2-dimethyl-1H-214-pyrazol-4-yl)pyrazolo[1,5-a]pyridine-3-carbonyl)-2-azaspiro[3.3]heptan-6-yl)-1-methyl-3-(4-(trifluoromethoxy)pyridin-2-yl)urea]	< 5 nM	5 to 25 nM

Results, then the compound that gave them:

Ki [1]	Ki [2]	Compound
< 5 nM	5 to 25 nM	Cc1cc(NC(=O)N(C)C2CC3(C2)CN(C(=O)c2cnn4ccn(C)c24)C3)cc(C(F)(F)F)c1 [Example 223, 1-methyl-1-(2-(1-methyl-1H-imidazo[1,2-b]pyrazole-7-carbonyl)-2-azaspiro[3.3]heptan-6-yl)-3-(3-methyl-5-(trifluoromethyl)phenyl)urea]
< 5 nM	5 to 25 nM	CN(C(=O)Nc1cc(Cl)cc(C(F)(F)F)c1)C1CC2(C1)CN(C(=O)c1cnn3ccn(C)c13)C2 [Example 224, 3-(3-chloro-5-(trifluoromethyl)phenyl)-1-methyl-1-(2-(1-methyl-1H-imidazo[1,2-b]pyrazole-7-carbonyl)-2-azaspiro[3.3]heptan-6-yl)urea]
< 5 nM	5 to 25 nM	CN(C(=O)Nc1cc(Br)ccn1)C1CC2(C1)CN(C(=O)c1cnn3ccsc13)C2 [Example 226, 3-(4-bromopyridin-2-yl)-1-methyl-1-(2-(pyrazolo[5,1-b]thiazole-7-carbonyl)-2-azaspiro[3.3]heptan-6-yl)urea]
< 5 nM	25 to 100 nM	CN(C(=O)Nc1cc(C(F)(F)F)cnn1)C1CC2(C1)CN(C(=O)c1cnn3ccsc13)C2 [Example 228, 1-methyl-1-(2-(pyrazolo[5,1-b]thiazole-7-carbonyl)-2-azaspiro[3.3]heptan-6-yl)-3-(5-(trifluoromethyl)pyridazin-3-yl)urea]
< 5 nM	5 to 25 nM	Cc1ncc(-c2ccc3c(C(=O)N4CC5(CC(N(C)C(=O)Nc6cncc(C(F)(F)F)c6)C5)C4)cnn3c2)o1 [Example 229, 1-methyl-1-(2-(6-(2-methyloxazol-5-yl)pyrazolo[1,5-a]pyridine-3-carbonyl)-2-azaspiro[3.3]heptan-6-yl)-3-(5-(trifluoromethyl)pyridin-3-yl)urea]
< 5 nM	5 to 25 nM	Cc1ccc(C(F)(F)F)cc1NC(=O)N(C)C1CC2(C1)CN(C(=O)c1cnn3ccn(C)c13)C2 [Example 232, 1-methyl-1-(2-(1-methyl-1H-imidazo[1,2-b]pyrazole-7-carbonyl)-2-azaspiro[3.3]heptan-6-yl)-3-(2-methyl-5-(trifluoromethyl)phenyl)urea]
< 5 nM	5 to 25 nM	COc1ccc(-c2ccc3c(C(=O)N4CC5(CC(N(C)C(=O)Nc6cncc(C(F)(F)F)c6)C5)C4)cnn3c2)cc1OC [Example 233, 1-(2-(6-(3,4-dimethoxyphenyl)pyrazolo [1,5-a]pyridine-3-carbonyl)-2-azaspiro[3.3]heptan-6-yl)-1-methyl-3-(5-(trifluoromethyl)pyridin-3-yl)urea]
< 5 nM	5 to 25 nM	Cc1ncc(-c2ccc3c(C(=O)N4CC5(CC(N(C)C(=O)Nc6cncc(C(F)(F)F)c6)C5)C4)cnn3c2)s1 [Example 234, 1-methyl-1-(2-(6-(2-methylthiazol-5-yl)pyrazolo[1,5-a]pyridine-3-carbonyl)-2-azaspiro[3.3]heptan-6-yl)-3-(5-(trifluoromethyl)pyridin-3-yl)urea]
< 5 nM	5 to 25 nM	COc1cc(-c2ccc3c(C(=O)N4CC5(CC(N(C)C(=O)Nc6cncc(C(F)(F)F)c6)C5)C4)cnn3c2)ccn1 [Example 236, 1-(2-(6-(2-methoxypyridin-4-yl)pyrazolo[1,5-a]pyridine-3-carbonyl)-2-azaspiro[3.3]heptan-6-yl)-1-methyl-3-(5-(trifluoromethyl)pyridin-3-yl)urea]
< 5 nM	5 to 25 nM	Cc1cc(-c2ccc3c(C(=O)N4CC5(CC(N(C)C(=O)Nc6cncc(C(F)(F)F)c6)C5)C4)cnn3c2)on1 [Example 237, 1-methyl-1-(2-(6-(3-methylisoxazol-5-yl)pyrazolo[1,5-a]pyridine-3-carbonyl)-2-azaspiro[3.3]heptan-6-yl)-3-(5-(trifluoromethyl)pyridin-3-yl)urea]
< 5 nM	5 to 25 nM	CN(C(=O)Nc1cncc(C(F)(F)F)c1)C1CC2(C1)CN(C(=O)c1cnn3ccc(N)cc13)C2 [Example 244, 1-(2-(5-aminopyrazolo[1,5-a]pyridine-3-carbonyl)-2-azaspiro[3.3]heptan-6-yl)-1-methyl-3-(5-(trifluoromethyl)pyridin-3-yl)urea]
